These results are taken from ChEMBL document CHEMBL1127743, “Structure-based design of HIV-1 protease inhibitors: replacement of two amides and a 10 pi-aromatic system by a fused bis-tetrahydrofuran” (J Med Chem, 1994).

In assay [1] the target is Human immunodeficiency virus type 1 protease (Human immunodeficiency virus 1, UniProt Q72874). Description: Tested for inhibitory activity against HIV protease enzyme.
For assay [2], the target named is Human immunodeficiency virus type 1 protease (Human immunodeficiency virus 1) (UniProt Q72874).
Description: Tested for antiviral potency against HIV protease enzyme

As a reminder, the IC50 is the concentration needed to halve the response being measured. Read a low IC50 as greater potency. As usually defined, the IC95 is the point of the concentration-response curve where the effect stands at 95%. The low end stands for an effect from little substance, the high end for a need for much substance. Regarding `CC(C)(C)NC(=O)[C@@H]1C[C@@H]2CCCC[C@@H]2CN1C[C@@H](O)[C@H](Cc1ccccc1)NC(=O)O[C@@H]1CO[C@@H]2OCC[C@@H]21`, in assay [1], the IC50 turned out to be 6.4 nM. The compound also yielded an IC95 in assay [2] of 200 nM.
